Assay [1] concerns Bovine aortic endothelial cells (BAEC). In words: Colony assay on vascular endothelial cells with 60Co γ-ray irradiation. It counts as cell-based. On the set-up: key to actually measured SF value of combined use group / actually measured SF value of combined use: SF = colonies/seeded cells×(PE/100); PE = control colony formation rate. As to conditions: for SF (cell surviving fraction), administration alone: 24 hours, no irradiation. On the procedure:
Bovine aortic endothelial cells (BAEC) were appropriately seeded on a petri dish, and adhesion of cells was confirmed after 2 to 3 hours. In a group of α-SQMG C18:0 administration alone and a combined use group, the cells were treated with 10 μM of α-SQMG C18:0. After 24 hours, a medium was exchanged in all test groups, and 4 Gy of ^60Co γ-ray was irradiated in a group of irradiation alone and a combined use group. After the cells were cultured in a CO2 incubator at 37° C. for 10 to 12 days, formed colonies were fixed with formalin, and stained with a crystal violet staining solution. On each plate, the number of colonies consisting of about 50 or more cells was counted, and cell surviving fraction (SF) was obtained according to the following equation.
SF (cell surviving fraction)=number of colonies/number of seeded cells×(PE/100)
Herein, PE (plating efficiency) represents a colony formation rate (%) on a plate of a control.
An experiment was performed three times, and an average of them was calculated.
The same experiment as that of Experimental Example 2-1 was performed except that a radiation dose 6 Gy was irradiated in place of 4 Gy used in Experimental Example 2-1. […]

Assay [2] relates to human uterine cervical cancer cells (HeLa cells). In words: Animal experiment: HeLa tumor-transplanted nude mice, tumor growth delay with X-ray irradiation. It counts as in vivo. As to conditions: Exp. Ex. 1-6: X-ray 8 Gy day 0 and day 4. How it is done:
A human cancer-transplanted mouse was prepared in the same manner as in Experimental Example 1-5 except that human uterine cervical cancer cells (HeLa cells) were transplanted into a nude mouse. When tumor volume reached 100 mm^3, α-SQMG C18:0 administration and irradiation treatment were performed. In a single use group of irradiation, each mouse was irradiated with X-ray at a dose of 8 Gy two times on day 0 and day 4. In a single use group of α-SQMG C18:0 administration, α-SQMG C18:0 was intraperitoneally administered at a concentration of 1 mg/kg at a total of 10 times consisting of two courses of 5 times, that is, once a day from day 0 to day 4 and once a day from day 12 to day 16. In the combined use group, each mouse of the group was treated with both of irradiation and α-SQMG C18:0 administration. In the control group, neither irradiation nor α-SQMG C18:0 administration was performed. Thereafter, tumor volume was measured over a period of 35 days in the same manner as the above Experimental Example 1-1.

Assay [3] has as its system human tongue squamous carcinoma cells (SAS cells). Put plainly: Animal experiment: SAS tumor-transplanted nude mice, tumor growth delay with X-ray irradiation. Format: in vivo. To be noted: for enhancement ratio (ER): tumor volume 500 mm^3. The source says: Nude mice were assigned to four groups (control group; single use group of the present radiosensitizer administration; single use group of irradiation; and combined use group of irradiation and the present radiosensitizer administration; 4 mice per group). 1.0×10^6 human tongue squamous carcinoma cells (SAS cells) were suspended in PBS(−), and the suspension was transplanted subcutaneously into a right thigh of each mouse. After 10 to 14 days, when tumor volume became a desired value in a range of about 50 mm^3 to about 100 mm^3, each mouse was subjected to treatment according to each group. As a radiosensitizer, 3-O-(6-deoxy-6-sulfo-α-D-glucopyranosyl)-1-O-stearoyl-glycerol sodium salt (hereinafter, also referred to as “α-SQMG C18:0”) was used. Regarding the single use group of irradiation, X-ray was irradiated two times (at the time of treatment initiation (day 0) and on day 6 after the treatment initiation) at a dose of 8 Gy. Regarding the single use group of α-SQMG C18:0 administration, the sensitizer was intraperitoneally administered two times (day 0 and day 6) at a concentration of 1 mg/kg. Regarding the combined use group, each mouse of the group was treated with both of irradiation and α-SQMG C18:0 administration. Regarding the control group, neither irradiation nor α-SQMG C18:0 administration was performed. Thereafter, a short diameter and a long diameter of a tumor were measured with a micrometer caliper over a period of 16 to 23 days. Tumor volume was calculated by the following equation, and the tumor growth delaying effect was compared.
Equation for calculating tumor volume:
tumor volume (mm^3)=(short diameter)^2×(long diameter)×0.5
The same experiment as that of Experimental Example 1-1 was performed except that irradiation was performed at the time of treatment initiation (day 0) and on day 4 after the treatment initiation, administration of α-SQMG C18:0 was performed only on day 0, and measurement of tumor size was performed over a period of 26 days.
In order to express numerically this synergistic effect, ER (enhancement ratio) was calculated by the following equation. ER is a value defined by the literature (Int., J. Radiation Oncology Bio. Phys. Vol. 55, No. 3, pp. 713-723 (2003)), and ER will be explained below based on the definition.
ER=NGD÷TGD in the case of X-ray irradiation alone
In the equation, “TGD (tumor growth delay)” indicates delay of days necessary for tumor volume to reach a predetermined size in each test group as compared with a control group. That is, this is expressed by the following equation. In the Examples of the present invention, the predetermined size of tumor volume is 500 mm^3, unless otherwise indicated.
TGD=(number of days necessary for tumor volume to reach 500 mm^3 in test group)−(number of days necessary for tumor volume to reach 500 mm^3 in control group)
“NGD (normalized growth delay)” is expressed by the following equation.
NGD=(TGD in the case of combined use)−(TGD in the case of drug administration alone)
According to the aforementioned literature, it can be said that the anti-tumor effect is synergistic, when an enhancement ratio (ER) obtained by the above equation exceeds 1.0.
The same experiment as that of Experimental Example 1-1 was performed except that irradiation was performed at the time of treatment initiation (day 0) and on day 3 after the treatment initiation, α-SQMG C18:0 was administered once a day from day 0 to day 4, and measurement of tumor size was performed over a period of 35 days.
In the present Experimental Example, an experiment was performed in the same manner as in the above Experimental Example except that irradiation was performed at a dose of 2 Gy per fraction everyday from the time of treatment initiation (day 0) to day 4, and administration of α-SQMG C18:0 was performed everyday from day 0 to day 4. Details of the experiment will be described below.
Four nude mice (eight weeks old) were randomly assigned to each of four groups. […]

[4] abbreviates: Exp. Ex. 1-2: X-ray 8 Gy day 0 and day 4, 1 mg/kg i.p. day 0 only.
[5] abbreviates: Exp. Ex. 1-3: X-ray 8 Gy day 0 and day 3, 1 mg/kg i.p. once a day day 0 to 4.

“And” between values parts separate entries of the source, which are not always exact repeats. Identical values can stand only once.

The text below walks through data of patent publication US20090253644A1, “Radiosensitizer” (TOYO SUISAN KAISHA, LTD., priority 2004, published 2009).

As for `CCCCCCCCCCCCCCCCCC(=O)OCC(O)CO[C@H]1O[C@H](CS(=O)(=O)[O-])[C@@H](O)[C@H](O)[C@H]1O.[Na+]` (stereo partly drawn) [α-SQMG C18:0, 3-O-(6-deoxy-6-sulfo-α-D-glucopyranosyl)-1-O-stearoyl-glycerol sodium salt], the “actually measured SF value of combined use” value is on record as 0.1370 in assay [1] (5 μM + 2 Gy 60Co γ-ray) and 0.0644 in assay [1] (10 μM + 2 Gy 60Co γ-ray). Besides, the “theoretical additive point of combined use (SF)” value is on record as 0.6012 in assay [1] (5 μM + 2 Gy 60Co γ-ray), 0.5620 in assay [1] (10 μM + 2 Gy 60Co γ-ray), 0.0974 in assay [1] (10 μM + 4 Gy 60Co γ-ray) and 0.0505 in assay [1] (10 μM + 6 Gy 60Co γ-ray). In addition, the “SF (cell surviving fraction), administration alone” value in assay [1] (5 μM) is 1.0094; in assay [1] (10 μM, sodium salt) it was 0.616 and 0.9433. Moreover, the “actually measured SF value of combined use group” value in assay [1] (10 μM + 4 Gy 60Co γ-ray) was 0.0640; in assay [1] (10 μM + 6 Gy 60Co γ-ray), 0.0180. Moreover, the “synergistic effect of combined use with radiation on suppression of proliferation of vascular endothelial cells” value in assay [1] (10 μM, 4 Gy and/or 6 Gy) is on record as “considerably great synergistic effect”. Moreover, the “cell proliferation suppressing effect, treatment alone” value in assay [1] (Exp. Ex. 2-5: 0 to 25 μM, 0 Gy) is given as “cell proliferation suppressing effect is not obtained”. Also, the “effect of irradiation on suppression of cell proliferation, combined use” value in assay [1] (Exp. Ex. 2-5: 0 to 25 μM, 2 to 8 Gy 60Co γ-ray) is recorded as “increased”. The “enhancement ratio (ER)” value in assay [2] (1 mg/kg i.p. day 0 to 4 and day 12 to 16, tumor volume 500 mm^3) turned out to be 2.71; in assay [3] (setting [4]), 2.0; in assay [3] (setting [5]), 3.0; in assay [3] (Exp. Ex. 1-4: X-ray 2 Gy once a day day 0 to 4, 1 mg/kg i.p. once a day day 0 to 4) it was 1.8. Besides, the “anti-tumor effect (tumor volume), combined use with irradiation” value is “anti-tumor effect far exceeding the anti-tumor effect attained by irradiation” in assay [2] (1 mg/kg i.p. once a day day 0 to 4 and day 12 to 16); “anti-tumor effect far exceeding the anti-tumor effect attained by irradiation” in assay [3] (Exp. Ex. 1-1: X-ray 8 Gy day 0 and day 6, 1 mg/kg i.p. day 0 and day 6); “anti-tumor effect far exceeding the anti-tumor effect attained by irradiation” in assay [3] (setting [4]); “anti-tumor effect far exceeding the anti-tumor effect attained by irradiation” in assay [3] (setting [5]); “anti-tumor effect exceeding the anti-tumor effect attained by irradiation alone” in assay [3] (Exp. Ex. 1-4: X-ray 2 Gy once a day day 0 to 4 (total 10 Gy), 1 mg/kg i.p. once a day day 0 to 4).
